Results published in ChEMBL document CHEMBL1201862, “PubChem BioAssay data set” (2004).
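Interpolation was linear, between the two tested concentrations surrounding the appropriate level; five concentrations were tested over 48 hours in 96-well plates. The concentration for 50% growth inhibition is given as GI50.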 The source made the active and inactive calls. No stated cut-off is given here; in the data, active = GI50 up to about 1.1 µM and inactive = higher.

What was measured:
Assay in all cases: NCI tumour cell line growth inhibition, 48 h
[1] = tested on: IGROV-1
[2] = tested on: SW-620
[3] = tested on: SNB-19
[4] = tested on: M14
[5] = tested on: COLO 205
[6] = tested on: Malme-3M
[7] = tested on: OVCAR-8
[8] = tested on: HCT-15
[9] = tested on: LOX IMVI
[10] = tested on: A549
[11] = tested on: UACC-62
[12] = tested on: OVCAR-3
[13] = tested on: SK-OV-3
[14] = tested on: EKVX
[15] = tested on: KM12
[16] = tested on: TK-10
[17] = tested on: OVCAR-5
[18] = tested on: CCRF-CEM
[19] = tested on: U-251
[20] = tested on: NCI-H23

Row | Structure (SMILES) | GI50 [1] | GI50 [2] | GI50 [3] | GI50 [4] | GI50 [5] | GI50 [6] | GI50 [7] | GI50 [8] | GI50 [9] | GI50 [10] | GI50 [11] | GI50 [12] | GI50 [13] | GI50 [14] | GI50 [15] | GI50 [16] | GI50 [17] | GI50 [18] | GI50 [19] | GI50 [20]
1 | CCCCCC(/C=C/c1ncccc1OCCCCCC(=O)O)=N\NC1=NCCN1 | > 100 µM (inactive) | 85.1 µM (inactive) | > 100 µM (inactive) | > 100 µM (inactive) | 53.8 µM (inactive) | > 100 µM (inactive) | > 100 µM (inactive) | > 100 µM | 74 µM (inactive) | > 100 µM (inactive) | 44.1 µM (inactive) | 89.9 µM (inactive) | > 100 µM (inactive) | > 100 µM (inactive) | 54.3 µM (inactive) | > 100 µM (inactive) | > 100 µM (inactive) | 53.6 µM (inactive) | – | –
2 | CN(C)N1C(=O)S/C(=C\c2ccc([N+](=O)[O-])cc2)C1=O | > 100 µM (inactive) | – | – | > 100 µM (inactive) | > 100 µM (inactive) | > 100 µM (inactive) | 99.3 µM (inactive) | > 100 µM | > 100 µM (inactive) | > 100 µM (inactive) | > 100 µM (inactive) | > 100 µM (inactive) | > 100 µM (inactive) | > 100 µM (inactive) | > 100 µM (inactive) | > 100 µM (inactive) | > 100 µM (inactive) | 55.2 µM (inactive) | 51.5 µM (inactive) | > 100 µM (inactive)
3 | N#Cc1c(-c2ccc([N+](=O)[O-])cc2)c(C#N)c(=O)n(NS(=O)(=O)c2ccccc2)c1O | > 100 µM (inactive) | > 100 µM (inactive) | 18.5 µM (inactive) | > 100 µM (inactive) | > 100 µM (inactive) | > 100 µM (inactive) | > 100 µM (inactive) | > 100 µM | > 100 µM (inactive) | > 100 µM (inactive) | > 100 µM (inactive) | > 100 µM (inactive) | > 100 µM (inactive) | > 100 µM (inactive) | – | > 100 µM (inactive) | > 100 µM (inactive) | > 100 µM (inactive) | > 100 µM (inactive) | –
4 | Clc1ccccc1C(n1ncc2ccccc21)n1ncc2ccccc21 | > 10 µM (inactive) | 29.7 µM (inactive) | 57.5 µM (inactive) | 31 µM (inactive) | – | 33.9 µM (inactive) | > 100 µM (inactive) | 38.3 µM | 49.9 µM (inactive) | – | > 10 µM (inactive) | 80.4 µM (inactive) | > 10 µM (inactive) | – | 25.7 µM (inactive) | 99.8 µM (inactive) | 37.7 µM (inactive) | 28.5 µM (inactive) | 35.8 µM (inactive) | 24 µM (inactive)
5 | CCC(=O)OCN(C)c1nc(N(C)COC(=O)CC)nc(N(C)COC(=O)CC)n1 | > 100 µM (inactive) | 26.9 µM (inactive) | > 100 µM (inactive) | 28.1 µM (inactive) | 24.3 µM (inactive) | 32.6 µM (inactive) | 69.3 µM (inactive) | 21.4 µM | 18 µM (inactive) | – | 18.6 µM (inactive) | > 100 µM (inactive) | > 100 µM (inactive) | – | 34.5 µM (inactive) | > 100 µM (inactive) | > 100 µM (inactive) | 24.8 µM (inactive) | > 100 µM (inactive) | > 100 µM (inactive)
6 | CC(=O)OCc1ccc(-c2nc(C#N)c(N)o2)o1 | > 10 µM (inactive) | > 10 µM (inactive) | > 10 µM (inactive) | > 10 µM (inactive) | > 10 µM (inactive) | > 10 µM (inactive) | > 10 µM (inactive) | > 10 µM | > 10 µM (inactive) | > 10 µM (inactive) | > 10 µM (inactive) | – | > 10 µM (inactive) | > 10 µM (inactive) | > 10 µM (inactive) | > 10 µM (inactive) | – | > 10 µM (inactive) | – | > 10 µM (inactive)
7 | CN1C2CCC1/C(=C/c1cccc3c1OCO3)C(=O)/C2=C\c1cccc2c1OCO2 | 30.1 µM (inactive) | > 100 µM (inactive) | – | 59 µM (inactive) | > 100 µM (inactive) | > 100 µM (inactive) | > 100 µM (inactive) | > 100 µM | > 100 µM (inactive) | – | 14.3 µM (inactive) | 87.3 µM (inactive) | 85.7 µM (inactive) | > 100 µM (inactive) | > 100 µM (inactive) | 21.3 µM (inactive) | > 100 µM (inactive) | 78 µM (inactive) | 24.5 µM (inactive) | > 100 µM (inactive)
8 | O=C1CC2(CCC(O)(c3cccc4ccccc34)C(C(=O)c3cccc4ccccc34)C2)C(=O)c2ccccc2N1 (stereo not given) | > 100 µM (inactive) | 24.2 µM (inactive) | 5.09 µM (inactive) | 29.8 µM (inactive) | 29.6 µM (inactive) | > 100 µM (inactive) | > 100 µM (inactive) | 26.4 µM | 32.8 µM (inactive) | > 100 µM (inactive) | 81.5 µM (inactive) | 39.9 µM (inactive) | 46.3 µM (inactive) | 28.9 µM (inactive) | – | 29.1 µM (inactive) | 71.8 µM (inactive) | > 10 µM (inactive) | 11.1 µM (inactive) | 62.2 µM (inactive)
9 | COc1cc(C(=O)C2CC3(CCC2(O)c2cc(OC)c(OC)c(OC)c2)CC(=O)Nc2ccccc2C3=O)cc(OC)c1OC (stereo not given) | > 100 µM (inactive) | > 100 µM (inactive) | > 100 µM (inactive) | 91.2 µM (inactive) | 26.5 µM (inactive) | > 100 µM (inactive) | > 100 µM (inactive) | 50.6 µM | 67.6 µM (inactive) | > 100 µM (inactive) | > 100 µM (inactive) | > 100 µM (inactive) | > 100 µM (inactive) | > 100 µM (inactive) | – | > 100 µM (inactive) | > 100 µM (inactive) | 37.3 µM (inactive) | > 100 µM (inactive) | 88.9 µM (inactive)
10 | OCCN1CCN(CCO)Cc2ccccc2OCCOc2ccccc2C1 | > 100 µM (inactive) | > 100 µM (inactive) | > 100 µM (inactive) | > 100 µM (inactive) | > 100 µM (inactive) | > 100 µM (inactive) | > 100 µM (inactive) | > 100 µM | 29.8 µM (inactive) | > 100 µM (inactive) | – | > 100 µM (inactive) | > 100 µM (inactive) | > 100 µM (inactive) | > 100 µM (inactive) | > 100 µM (inactive) | > 100 µM (inactive) | > 100 µM (inactive) | > 100 µM (inactive) | > 100 µM (inactive)
11 | NCC(=O)N[C@H]1c2ccsc2/C(=N/O)[C@H]1O | > 100 µM (inactive) | > 100 µM (inactive) | – | > 100 µM (inactive) | > 100 µM (inactive) | > 100 µM (inactive) | > 100 µM (inactive) | > 100 µM | > 100 µM (inactive) | > 100 µM (inactive) | > 100 µM (inactive) | > 100 µM (inactive) | > 100 µM (inactive) | > 100 µM (inactive) | – | > 100 µM (inactive) | > 100 µM (inactive) | > 100 µM (inactive) | > 100 µM (inactive) | > 100 µM (inactive)
12 | CC1(C)CC(=O)c2c(nc3c4c([nH]c(-c5ccc([N+](=O)[O-])cc5)c24)CC(C)(C)C3)C1 | – | 47.4 µM (inactive) | 48.4 µM (inactive) | 27.7 µM (inactive) | 17 µM (inactive) | > 100 µM (inactive) | 38.3 µM (inactive) | 25.2 µM | 31.3 µM (inactive) | 27.6 µM (inactive) | 21.7 µM (inactive) | 85.5 µM (inactive) | > 100 µM (inactive) | 61.4 µM (inactive) | 37.4 µM (inactive) | 50.7 µM (inactive) | 58.1 µM (inactive) | 10.1 µM (inactive) | 26.7 µM (inactive) | 48.5 µM (inactive)
13 | CC12CC3CC(C1)CC(N=[N+]=[N-])(C3)C2 | > 100 µM (inactive) | > 100 µM (inactive) | > 100 µM (inactive) | > 100 µM (inactive) | > 100 µM (inactive) | > 100 µM (inactive) | > 100 µM (inactive) | – | > 100 µM (inactive) | > 100 µM (inactive) | > 100 µM (inactive) | > 100 µM (inactive) | > 100 µM (inactive) | > 100 µM (inactive) | > 100 µM (inactive) | > 100 µM (inactive) | > 100 µM (inactive) | > 100 µM (inactive) | > 100 µM (inactive) | > 100 µM (inactive)
14 | NC1C(O)C(O)C(CO)OC1n1cc(F)c(=O)[nH]c1=O (stereo not given) | – | > 100 µM (inactive) | > 100 µM (inactive) | – | > 100 µM (inactive) | > 100 µM (inactive) | – | > 100 µM | > 100 µM (inactive) | > 100 µM (inactive) | – | – | > 100 µM (inactive) | – | > 100 µM (inactive) | > 100 µM (inactive) | > 100 µM (inactive) | > 100 µM (inactive) | > 100 µM (inactive) | > 100 µM (inactive)
15 | O=C1Cc2c([nH]c3cc(Br)ccc23)-c2ccccc2N1 | 16.4 µM (inactive) | 6.81 µM (inactive) | 21.9 µM (inactive) | 18.5 µM (inactive) | 19.2 µM (inactive) | 20.8 µM (inactive) | 18.4 µM (inactive) | 4.21 µM | 2.9 µM (inactive) | 15.8 µM (inactive) | 12.6 µM (inactive) | 19.6 µM (inactive) | 19.9 µM (inactive) | – | 18.6 µM (inactive) | 29.3 µM (inactive) | 9.51 µM (inactive) | 2.19 µM (inactive) | 14.4 µM (inactive) | 11.6 µM (inactive)
